Tests used:
[1] = system: HMEC-1; experiment: Endothelial proliferation assay using the Countess system with Trypan Blue exclusion; type: cell-based, human; conditions: 5% FBS, 0.1-0.6 μM, 24 h
Procedure: Endothelial proliferation assay using the Countess system. HMEC-1 proliferation was assessed using a Countess II Automated Cell Counter (ThermoFisher Scientific). Briefly, HMEC-1 (3×10^5 cells/well) were seeded in a 12-well plate. Cells were serum-deprived for 24 h in MCDB131 medium which contained 10 ng/ml EGF and 1 μg/ml hydrocortisone then treated with compound (0.1-0.6 μM) in medium containing 5% FBS, 10 ng/ml EGF and 1 μg/ml hydrocortisone. The cells were trypsinized after 24 h, resuspended in complete medium, a 10 μl aliquot was combined with an equal volume of […], and total cell numbers and Trypan Blue-excluding cells as a proportion of total was determined using the Countess.

[2] = system: FosB/ΔFosB; experiment: Western blot, IL-1β-inducible FosB/ΔFosB expression in HMEC-1; type: cell-based, human; conditions: 30 μM, 20 ng/ml IL-1β up to 4 h
Procedure: (§1) Western blot analysis with extracts of cells treated with IL-13. HMEC-1 (80-90% confluency) were arrested in serum-free MCDB131 medium (Invitrogen, MD) without any growth factor for 48 h. Cells were treated with 30 μM compound in serum-free medium for 4 h, and incubated with 20 ng/ml IL-1β (Sigma, cat. SRE3083) in serum-free medium with the same concentration of compound for up to 4 h, unless otherwise indicated. Total protein was harvested as previously described using RIPA buffer with protease inhibitors. Proteins were resolved on 4-20% (w/v) SDS-polyacrylamide gradient gels and transferred to Immobilon-P PVDF membranes. […] Chemiluminescence was detected using the Western Lightning Chemiluminescence system and ImageQuant™ LAS 4000 biomolecular imager. Band intensity in images generated with the LAS 4000 using the same settings were quantified by NIH ImageJ.

[3] = system: AP-1 response element; experiment: AP-1 response element Firefly luciferase high-throughput screen in 293/AP-1-luc cells; type: cell-based, human; conditions: 11-point titration curves; TPA-induced 293/AP-1-luc cells
Source text: High-throughput screen of compound library. Hits were selected from the ˜100,000 compound Lead Discovery Library at the HTS Facility at Walter & Eliza Hall Institute of Medical Research (WEHI, Bundoora, Vic) with a commercially-available human embryonic kidney (HEK)-293 cell-based assay in 384-well microtitre plates in which Firefly luciferase was driven by multiple copies of the AP-1 response element (293/AP-1-luc cells, Panomics, Fremont, CA). Briefly, the cell-based assay involved plating 5×10^3 cells into 384-well plates in DMEM, pH 7.4 containing 10% FBS. After ˜18 h, the cells were induced with 10 ng/ml […] (TPA) (Sigma, St Louis, MO) in the absence or presence of test compound, then after ˜18 h, luciferase activity was measured using a luminometer. The hit rate of the primary screen was 2.4%. […] A substructure filter was then applied to remove pan-assay interference compounds (Baell, J. B., et al., J Med Chem 53, 2719-2740 (2010)) and using the most stringent filtering criteria 256 hits were selected for further study. After dose response testing, 24 compounds with molecular weight <400 Da were reordered from suppliers and tested in secondary assays.

[4] = GLP ocular pharmacokinetics study, single intravitreal injection; type: in vivo; conditions: rabbit, eye, other: intravitreal injection; rabbits; single intravitreal injection 10 μg/50 μl; read-out: ocular half-life (t1/2) (converted)
[5] = system: THP-1 adhesion to HMEC; experiment: Endothelial-monocytic cell adhesion assay; type: cell-based, human; conditions: 20 ng/ml IL-1β, calcein-labeled THP-1
Procedure: Endothelial-monocytic cell adhesion assay. HMEC (80-90% confluency) in 96-well plates were deprived of serum for 24 h and treated with compound at indicated concentrations for 1 h then incubated with IL-1β (20 ng/ml) for 4 h. Meanwhile THP-1 were labeled with 5 μM calcein (5×10^6 cells/ml, BD Bioscience) for 30 min at 37° C. followed by washing 3 times with PBS. THP-1 (2.5×10^5 cells/well) were then added for 30 min, unbound cells were washed off 3 times in PBS. Adhesion of calcein-labeled THP-1 to the endothelium layer was determined in a fluorescent plate reader at excitation 485 nm and emission 530 nm.

[6] = system: VCAM-1; experiment: Western blot, IL-1β-inducible VCAM-1 expression in HMEC-1; type: cell-based, human
Procedure: as §1

Structure (SMILES): CCOC(=O)Nc1ccc2c(c1)C(=O)N(CC)c1ccccc1O2 [BT2, (10-ethyl-11-oxo-10,11-dihydro-dibenzo[b,f][1,4]oxazepin-2-yl)-carbamic acid ethyl ester]
- Trypan Blue incorporation (% living cells) [1]: without affecting Trypan Blue incorporation
- serum-inducible proliferation, total cell numbers (Countess) [1]: inhibited serum-inducible proliferation
- IL-1β-inducible FosB/ΔFosB expression (Western blot) [2]: inhibited
- IC50, AP-1 luciferase screen [3]: micromolar or submicromolar range
- half-life [4]: 79.2 h
- THP-1 adhesion to IL-1β-treated endothelial cells [5]: inhibited by BT2
- IL-1β-inducible VCAM-1 expression (Western blot) ([6]; 30 μM, 20 ng/ml IL-1β up to 4 h): inhibited
- inhibition of IL-1β-inducible VCAM-1, potency relative to PD98059 ([6]; dose escalation 1-30 μM): more potently than PD98059

Reference: patent US20260102407A1, “TREATMENT METHODS” (priority 2020, published 2026)
